# Counter-ions that a name gives are not always drawn.
# Target: Aurora A (Homo sapiens (Human), UniProt O14965)
# Assay: Aurora A inhibition assay (Z-Lyte)
# Format: biochemical
# Chain of Aurora A (O14965 whole entry): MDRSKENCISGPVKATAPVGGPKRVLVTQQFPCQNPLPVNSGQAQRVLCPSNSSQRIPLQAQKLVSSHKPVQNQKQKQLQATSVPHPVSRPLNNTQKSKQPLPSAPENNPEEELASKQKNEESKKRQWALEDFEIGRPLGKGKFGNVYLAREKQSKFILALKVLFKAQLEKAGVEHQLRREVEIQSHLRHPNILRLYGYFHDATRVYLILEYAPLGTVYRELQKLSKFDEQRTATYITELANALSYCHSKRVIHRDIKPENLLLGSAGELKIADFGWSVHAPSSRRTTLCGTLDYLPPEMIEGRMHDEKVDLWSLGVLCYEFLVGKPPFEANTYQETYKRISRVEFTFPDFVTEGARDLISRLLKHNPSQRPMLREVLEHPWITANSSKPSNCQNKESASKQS
row,Compound,inhibition at 1 µM [%]
1,"CN1CCC(Oc2ccc(/C=C/c3n[nH]c4cc([C@@H]5C[C@@]56C(=O)Nc5ccccc56)ccc34)cc2)CC1 [Example A78, (1R,2S)-(E)-2-(3-(4-(1-methylpiperidin-4-yloxy)styryl)-1H-indazol-6-yl)spiro[cyclopropane-1,3′-indolin]-2′-one 2,2,2-trifluoroacetate salt]",> 50
2,"CN1C(=O)[C@@]2(C[C@H]2c2ccc3c(/C=C/c4ccc(N5CCNCC5)cc4)n[nH]c3c2)c2ccccc21 [Example A90, (1R,2S)-(E)-1′-methyl-2-(3-(4-(piperazin-1-yl)styryl)-1H-indazol-6-yl)spiro[cyclopropane-1,3′-indolin]-2′-one hydrochloride]",> 50
3,"O=C1Nc2ccccc2[C@]12C[C@H]2c1ccc2c(/C=C/c3ccc(N4CCNCC4)cc3)n[nH]c2c1 [Example A92, (1R,2S)-(E)-2-(3-(4-(piperazin-1-yl)styryl)-1H-indazol-6-yl)spiro[cyclopropane-1,3′-indolin]-2′-one bis(2,2,2-trifluoroacetate)]",> 50
4,"CN1C(=O)[C@@]2(C[C@H]2c2ccc3c(/C=C/c4ccc(CN5CCCCC5)cc4)n[nH]c3c2)c2ccccc21 [Example A94, (1R,2S)-(E)-1′-methyl-2-(3-(4-(piperidin-1-ylmethyl)styryl)-1H-indazol-6-yl)spiro[cyclopropane-1,3′-indolin]-2′-one hydrochloride]",> 50
5,"CCN1CCN(c2ccc(-c3n[nH]c4cc([C@@H]5C[C@@]56C(=O)Nc5ccc(OC)cc56)ccc34)cc2)CC1 [Example A99, (1R,2S)-2-(3-(4-(4-ethylpiperazin-1-yl)phenyl)-1H-indazol-6-yl)-5′-methoxyspiro[cyclopropane-1,3′-indolin]-2′-one 2,2,2-trifluoroacetate]",< 50
6,"COc1ccc2c(c1)[C@]1(C[C@H]1c1ccc3c(-c4ccc(N5CCNCC5)cc4)n[nH]c3c1)C(=O)N2C [Example A101, (1R,2S)-5′-methoxy-1′-methyl-2-(3-(4-(piperazin-1-yl)phenyl)-1H-indazol-6-yl)spiro[cyclopropane-1,3′-indolin]-2′-one 2,2,2-trifluoroacetate]",< 50
7,"O=C1Nc2ccccc2[C@]12C[C@H]2c1ccc2c(/C=C/c3ccc(CN4CC[C@@H](F)C4)cc3)n[nH]c2c1 [Example A106, (1R,2S)-(E)-2-(3-(4-(((R)-3-fluoropyrrolidin-1-yl)methyl)styryl)-1H-indazol-6-yl)spiro[cyclopropane-1,3′-indolin]-2′-one 2,2,2-trifluoroacetate]",> 50
8,"COc1ccc2c(c1)[C@]1(C[C@H]1c1ccc3c(-c4ccc5nccn5c4)n[nH]c3c1)C(=O)N2 [Example A107, (1R,2S)-2-(3-(imidazo[1,2-a]pyridin-6-yl)-1H-indazol-6-yl)-5′-methoxyspiro[cyclopropane-1,3′-indolin]-2′-one 2,2,2-trifluoroacetate]",< 50
9,"COc1ccc2c(c1)[C@]1(C[C@H]1c1ccc3c(-c4ccc(OCCn5ccnc5)cc4)n[nH]c3c1)C(=O)N2 [Example A108, (1R,2S)-2-(3-(4-(2-(1H-imidazol-1-yl)ethoxy)phenyl)-1H-indazol-6-yl)-5′-methoxyspiro[cyclopropane-1,3′-indolin]-2′-one 2,2,2-trifluoroacetate]",< 50
10,"CN(C)Cc1ccc(/C=C/c2n[nH]c3cc([C@@H]4C[C@@]45C(=O)N(C)c4ccccc45)ccc23)cc1 [Example A109, (1R,2S)-(E)-2-(3-(4-((dimethylamino)methyl)styryl)-1H-indazol-6-yl)-1′-methylspiro[cyclopropane-1,3′-indolin]-2′-one 2,2,2-trifluoroacetate]",> 50
11,"CN1CCN(c2ccc(/C=C/c3n[nH]c4cc([C@@H]5C[C@@]56C(=O)N(C)c5ccccc56)ccc34)cn2)CC1 [Example A110, (1R,2S)-1′-methyl-2-(3-((E)-2-(6-(4-methylpiperazin-1-yl)pyridin-3-yl)vinyl)-1H-indazol-6-yl)spiro[cyclopropane-1,3′-indolin]-2′-one bis(2,2,2-trifluoroacetate)]",> 50
12,"COc1ccc2c(c1)[C@]1(C[C@H]1c1ccc3c(/C=C/c4ccncc4)n[nH]c3c1)C(=O)N2 [Example A111, (1R,2S)-5′-methoxy-2-(3-((E)-2-(pyridin-4-yl)vinyl)-1H-indazol-6-yl)spiro[cyclopropane-1,3′-indolin]-2′-one 2,2,2-trifluoroacetate]",> 50

# Next, values leading:
row,inhibition at 1 µM [%],Compound
1,> 50,"COc1ccc2c(c1)[C@]1(C[C@H]1c1ccc3c(/C=C/c4ccc(CN5CCCOCC5)cc4)n[nH]c3c1)C(=O)N2 [Example A73, (1R,2S)-(E)-2-(3-(4-((1,4-oxazepan-4-yl)methyl)styryl)-1H-indazol-6-yl)-5′-methoxyspiro[cyclopropane-1,3′-indolin]-2′-one 2,2,2-trifluoroacetate salt]"
2,> 50,"CN1CCc2cc(/C=C/c3n[nH]c4cc([C@@H]5C[C@@]56C(=O)Nc5ccccc56)ccc34)ccc2C1 [Example A74, (1R,2S)-2-(3-((E)-2-(2-methyl-1,2,3,4-tetrahydroisoquinolin-6-yl)vinyl)-1H-indazol-6-yl)spiro[cyclopropane-1,3′-indolin]-2′-one 2,2,2-trifluoroacetate salt]"
3,> 50,"COc1ccc2c(c1)[C@]1(C[C@H]1c1ccc3c(/C=C/c4ccc5c(c4)CCN(C)C5)n[nH]c3c1)C(=O)N2 [Example A75, (1R,2S)-5′-methoxy-2-(3-((E)-2-(2-methyl-1,2,3,4-tetrahydroisoquinolin-6-yl)vinyl)-1H-indazol-6-yl)spiro[cyclopropane-1,3′-indolin]-2′-one 2,2,2-trifluoroacetate salt]"
4,< 50,"CN1CCc2cc(-c3n[nH]c4cc([C@@H]5C[C@@]56C(=O)Nc5ccccc56)ccc34)ccc2C1 [Example A76, (1R,2S)-2-(3-(2-methyl-1,2,3,4-tetrahydroisoquinolin-6-yl)-1H-indazol-6-yl)spiro[cyclopropane-1,3′-indolin]-2′-one 2,2,2-trifluoroacetate salt]"
5,> 50,"COc1ccc2c(c1)[C@]1(C[C@H]1c1ccc3c(/C=C/c4ccc(OC5CCN(C)CC5)cc4)n[nH]c3c1)C(=O)N2 [Example A79, (1R,2S)-(E)-5′-methoxy-2-(3-(4-(1-methylpiperidin-4-yloxy)styryl)-1H-indazol-6-yl)spiro[cyclopropane-1,3′-indolin]-2′-one 2,2,2-trifluoroacetate salt]"
6,> 50,"CC(C)(c1ccc(/C=C/c2n[nH]c3cc([C@@H]4C[C@@]45C(=O)Nc4ccccc45)ccc23)cc1)N1CCOCC1 [Example A80, (1R,2S)-(E)-2-(3-(4-(2-morpholinopropan-2-yl)styryl)-1H-indazol-6-yl)spiro[cyclopropane-1,3′-indolin]-2′-one 2,2,2-trifluoroacetate salt]"
7,> 50,"CN1CCC(Cc2ccc(/C=C/c3n[nH]c4cc([C@@H]5C[C@@]56C(=O)Nc5ccccc56)ccc34)cc2)CC1 [Example A81, (1R,2S)-(E)-2-(3-(4-((l-methylpiperidin-4-yl)methyl)styryl)-1H-indazol-6-yl)spiro[cyclopropane-1,3′-indolin]-2′-one 2,2,2-trifluoroacetate salt]"
8,> 50,"COc1ccc2c(c1)[C@]1(C[C@H]1c1ccc3c(/C=C/c4ccc(CC5CCN(C)CC5)cc4)n[nH]c3c1)C(=O)N2 [Example A82, (1R,2S)-(E)-5′-methoxy-2-(3-(4-((l-methylpiperidin-4-yl)methyl)styryl)-1H-indazol-6-yl)spiro[cyclopropane-1,3′-indolin]-2′-one 2,2,2-trifluoroacetate salt]"
9,> 50,"COc1ccc2c(c1)[C@]1(C[C@H]1c1ccc3c(/C=C/c4ccc(CN5CCCC5)cc4)n[nH]c3c1)C(=O)N2 [Example A83, (1R,2S)-(E)-5′-methoxy-2-(3-(4-(pyrrolidin-1-ylmethyl)styryl)-1H-indazol-6-yl)spiro[cyclopropane-1,3′-indolin]-2′-one 2,2,2-trifluoroacetate]"
10,> 50,"COc1ccc2c(c1)[C@]1(C[C@H]1c1ccc3c(/C=C/c4ccc(CN5CCOCC5)cc4)n[nH]c3c1)C(=O)N2C [Example A102, (1R,2S)-(E)-5′-methoxy-1′-methyl-2-(3-(4-(morpholinomethyl)styryl)-1H-indazol-6-yl)spiro[cyclopropane-1,3′-indolin]-2′-one hydrochloride]"
11,> 50,"COc1ccc2c(c1)[C@]1(C[C@H]1c1ccc3c(/C=C/c4ccc(CN5CCOCC5)s4)n[nH]c3c1)C(=O)N2 [Example A105, (1R,2S)-5′-methoxy-2-(3-((E)-2-(5-(morpholinomethyl)thiophen-2-yl)vinyl)-1H-indazol-6-yl)spiro[cyclopropane-L3′-indolin]-2′-one hydrochloride]"
12,> 50,"COc1ccc2c(c1)[C@]1(C[C@H]1c1ccc3c(/C=C/c4ccc(CN5CC[C@@H](F)C5)cc4)n[nH]c3c1)C(=O)N2 [Example A112, (1R,2S)-(E)-2-(3-(4-(((R)-3-fluoropyrrolidin-1-yl)methyl)styryl)-1H-indazol-6-yl)-5′-methoxyspiro[cyclopropane-1,3′-indolin]-2′-one 2,2,2-trifluoroacetate]"
13,> 50,"O=C1Nc2ccccc2[C@]12C[C@H]2c1ccc2c(/C=C/c3ccc4c(c3)CNCCO4)n[nH]c2c1 [Example A113, (1R,2S)-2-(3-((E)-2-(2,3,4,5-tetrahydrobenzo[f][1,4]oxazepin-7-yl)vinyl)-1H-indazol-6-yl)spiro[cyclopropane-1,3′-indolin]-2′-one 2,2,2-trifluoroacetate]"
14,< 50,"CN1C(=O)[C@@]2(C[C@H]2c2ccc3c(/C=C/c4ccc(CN5CCCC5)cc4)n[nH]c3c2)c2ccccc21 [Example A115, (1R,2S)-(E)-1′-methyl-2-(3-(4-(pyrrolidin-1-ylmethyl)styryl)-1H-indazol-6-yl)spiro[cyclopropane-1,3′-indolin]-2′-one 2,2,2-trifluoroacetate]"
15,> 50,"O=C1Nc2ccccc2[C@]12C[C@H]2c1ccc2c(/C=C/c3cc(F)c(CN4CCOCC4)c(F)c3)n[nH]c2c1 [Example A116, (1R,2S)-(E)-2-(3-(3,5-difluoro-4-(morpholinomethyl)styryl)-1H-indazol-6-yl)spiro[cyclopropane-1,3′-indolin]-2′-one 2,2,2-trifluoroacetate]"

# Source: patent US10358436B2, “Kinase inhibitors and method of treating cancer” (University Health Network, priority 2010, dated 2019)
